According to US7605227B2, “Melanoma antigen peptide analogues” (MannKind Corporation, priority 2005, dated 2009):
Entries after “also recorded” stand apart in the source; their conditions may differ. Square brackets hold non-standard residues; d marks the D form. Ends that are not written are not given here. Peptide text beside a SMILES is read from it. Phe(4-NO2) = N[C@@H](Cc1ccc([N+](=O)[O-])cc1)C(=O)O; Bta = N[C@@H](Cc1csc2ccccc12)C(=O)O; Phg = N[C@H](C(=O)O)c1ccccc1; Nle = CCCC[C@H](N)C(=O)O; Nva = CCC[C@H](N)C(=O)O

Legend:
HLA-A*0201 = HLA-A*0201 (Homo sapiens, UniProt P04439, D140Y/D185E/D98H/E176V/E277Q/G131W/G231S/I119V/I121R/I166T/I218V/L300P/L318F/N151K/N90K/P208A/P217A/Q86G/Q94H/R138H/R169H/T345S); experiment: Peptide binding using T2 cells (SSX-2 41-49 analogs); settings: for Relative affinity (1/RA): half maximal binding of wild-type peptide relative to analog, native = 1.0
From the text: Thus, at limiting concentrations of peptide, it is a measurement of Kon mostly and at saturation levels of peptide it is a measurement of both Kon and Koff.

[1] = system: T cell lines against a natural (non-mutated) epitope (SSX-241-49); experiment: Cross-reactivity and functional avidity: IFN-gamma from T cell lines against natural SSX-2 41-49 epitope; type: cell-based, HHD transgenic mice; settings: for Cross-reactivity and fct avidity (native to analogs)*: IFN-gamma from T cell line raised against native SSX-2 41-49, native = 1, lower = more active; for cross-reactivity / IFN-gamma inducing activity relative to wild-type, in words: SSX-2 41-49 analogs, wild-type specific T cells;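 for all read-outs here: peptide analogs tested ex vivo with competent APCs, IFN-gamma in supernatant measured by ELISA, readouts include minimal triggering concentration, peak effect and concentration at peak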

| Compound | Cross-reactivity and fct avidity (native to analogs)* [1] | other results |
| --- | --- | --- |
| CC[C@H](C)[C@H](NC(=O)[C@H](CCCCN)NC(=O)[C@H](CCC(=O)O)NC(=O)[C@H](CO)NC(=O)[C@H](C)NC(=O)[C@@H](N)Cc1ccc(OC)cc1)C(=O)N[C@@H](Cc1ccccc1)C(=O)N[C@@H](Cc1ccc(O)cc1)C(=O)N[C@H](C(=O)O)C(C)C [SSX2 41-49 (K41(O-methyl Tyr))] (H-Y(Me)ASEKIFYV-OH) | 3 | Relative affinity (1/RA) (HLA-A*0201): 0.8 |
| CC[C@H](C)[C@H](NC(=O)[C@H](CCCCN)NC(=O)[C@H](CCC(=O)O)NC(=O)[C@H](CO)NC(=O)[C@H](C)NC(=O)[C@@H](N)Cc1ccc([N+](=O)[O-])cc1)C(=O)N[C@@H](Cc1ccccc1)C(=O)N[C@@H](Cc1ccc(O)cc1)C(=O)N[C@H](C(=O)O)C(C)C [SSX2 41-49 (K41(Phe-4N02))] (H-[Phe(4-NO2)]ASEKIFYV-OH) | 3 | binding affinity (and stability) with HLA-A*0201 relative to wild-type, in words (HLA-A*0201; SSX-2 41-49 analogs): about the same as that of wild-type peptide; Relative affinity (1/RA) (HLA-A*0201): 1.1; cross-reactivity / IFN-gamma inducing activity relative to wild-type, in words [1]: much lower concentration |
| CC[C@H](C)[C@H](NC(=O)[C@H](CCCCN)NC(=O)[C@H](CCC(=O)O)NC(=O)[C@H](CO)NC(=O)[C@H](C)NC(=O)[C@@H](N)c1ccccc1)C(=O)N[C@@H](Cc1ccccc1)C(=O)N[C@@H](Cc1ccc(O)cc1)C(=O)N[C@H](C(=O)O)C(C)C [SSX2 41-49 (K41(Phg))] (H-[Phg]ASEKIFYV-OH) | 0.1 | Relative affinity (1/RA) (HLA-A*0201): 2.5 |
| CC[C@H](C)[C@H](NC(=O)[C@H](CCCCN)NC(=O)[C@H](CCC(=O)O)NC(=O)[C@H](CO)NC(=O)[C@H](C)NC(=O)[C@@H](N)Cc1csc2ccccc12)C(=O)N[C@@H](Cc1ccccc1)C(=O)N[C@@H](Cc1ccc(O)cc1)C(=O)N[C@H](C(=O)O)C(C)C [SSX2 41-49 (K41(b-(3-benzothienyl)Ala))] (H-[Bta]ASEKIFYV-OH) | 10 | Relative affinity (1/RA) (HLA-A*0201): 0.6 |
| CCCC[C@H](NC(=O)[C@H](CO)NC(=O)[C@@H](NC(=O)[C@@H](N)Cc1ccccc1)C(C)C)C(=O)N[C@@H](CCCCN)C(=O)N[C@H](C(=O)N[C@@H](Cc1ccccc1)C(=O)N[C@@H](Cc1ccc(O)cc1)C(=O)N[C@H](C(=O)O)C(C)C)[C@@H](C)CC [SSX2 41-49 (K41F, A42V, E44Nle), FVS(Nle)KIFYV] (H-FVS[Nle]KIFYV-OH) | 10 | Relative affinity (1/RA) (HLA-A*0201): 1.1 |
| CCC[C@H](NC(=O)[C@H](CO)NC(=O)[C@@H](NC(=O)[C@@H](N)Cc1ccccc1)C(C)C)C(=O)N[C@@H](CCCCN)C(=O)N[C@H](C(=O)N[C@@H](Cc1ccccc1)C(=O)N[C@@H](Cc1ccc(O)cc1)C(=O)N[C@H](C(=O)O)C(C)C)[C@@H](C)CC [SSX2 41-49 (K41F, A42V, E44Nva), FVS(Nva)KIFYV] (H-FVS[Nva]KIFYV-OH) | 3 | Relative affinity (1/RA) (HLA-A*0201): 3.9 |
| CC[C@H](C)[C@H](NC(=O)[C@H](CCCCN)NC(=O)[C@H](CO)NC(=O)[C@H](CO)NC(=O)[C@@H](NC(=O)[C@@H](N)Cc1ccccc1)C(C)C)C(=O)N[C@@H](Cc1ccccc1)C(=O)N[C@@H](Cc1ccc(O)cc1)C(=O)N[C@H](C(=O)O)C(C)C [SSX2 41-49 (K41F, A42V, E44S)] | >10 | – |
| CC[C@H](C)[C@H](NC(=O)[C@H](CCCCN)NC(=O)[C@@H](NC(=O)[C@H](CO)NC(=O)[C@@H](NC(=O)[C@@H](N)Cc1ccccc1)C(C)C)[C@@H](C)O)C(=O)N[C@@H](Cc1ccccc1)C(=O)N[C@@H](Cc1ccc(O)cc1)C(=O)N[C@H](C(=O)O)C(C)C [SSX2 41-49 (K41F, A42V, E44T)] | >10 | – |
| CCCC[C@H](NC(=O)[C@H](CCCCN)NC(=O)[C@H](CCC(=O)O)NC(=O)[C@H](CO)NC(=O)[C@@H](NC(=O)[C@@H](N)Cc1ccccc1)C(C)C)C(=O)N[C@@H](Cc1ccccc1)C(=O)N[C@@H](Cc1ccc(O)cc1)C(=O)N[C@H](C(=O)O)C(C)C [SSX2 41-49 (K41F, A42V, I46Nle), FVSEK(Nle)FYV] (H-FVSEK[Nle]FYV-OH) | 10 | Relative affinity (1/RA) (HLA-A*0201): 1.1 |
| CC[C@H](C)[C@H](NC(=O)[C@H](CCCCN)NC(=O)[C@H](CCC(=O)O)NC(=O)[C@H](CO)NC(=O)[C@@H](NC(=O)[C@@H](N)Cc1ccccc1)C(C)C)C(=O)N[C@@H](Cc1ccccc1)C(=O)N[C@@H](Cc1ccc(O)cc1)C(=O)N[C@@H](C)C(=O)O [SSX2 41-49 (K41F, A42V, V49A)] | 1 | – |
| CC[C@H](NC(=O)[C@H](Cc1ccc(O)cc1)NC(=O)[C@H](Cc1ccccc1)NC(=O)[C@@H](NC(=O)[C@H](CCCCN)NC(=O)[C@H](CCC(=O)O)NC(=O)[C@H](CO)NC(=O)[C@@H](NC(=O)[C@@H](N)Cc1ccccc1)C(C)C)[C@@H](C)CC)C(=O)O [SSX2 41-49 (K41F, A42V, V49Abu)] | 1 | – |
| CC[C@H](C)[C@H](NC(=O)[C@H](CCCCN)NC(=O)[C@H](CCC(=O)O)NC(=O)[C@H](CO)NC(=O)[C@@H](NC(=O)[C@@H](N)Cc1ccccc1)C(C)C)C(=O)N[C@@H](Cc1ccccc1)C(=O)N[C@@H](Cc1ccc(O)cc1)C(=O)N[C@@H](CC(C)C)C(=O)O [SSX2 41-49 (K41F, A42V, V49L)] | >10 | – |
| CC[C@H](C)[C@H](NC(=O)[C@H](CCCCN)NC(=O)[C@H](CCC(=O)O)NC(=O)[C@H](CO)NC(=O)[C@@H](NC(=O)[C@@H](N)Cc1ccccc1)C(C)C)C(=O)N[C@@H](Cc1ccccc1)C(=O)N[C@@H](Cc1ccc(O)cc1)C(=O)N(C)[C@H](C(=O)O)C(C)C [SSX2 41-49 (K41F, A42V, V49MeVal)] | 10 | – |
| CCCC[C@H](NC(=O)[C@H](Cc1ccc(O)cc1)NC(=O)[C@H](Cc1ccccc1)NC(=O)[C@@H](NC(=O)[C@H](CCCCN)NC(=O)[C@H](CCC(=O)O)NC(=O)[C@H](CO)NC(=O)[C@@H](NC(=O)[C@@H](N)Cc1ccccc1)C(C)C)[C@@H](C)CC)C(=O)O [SSX2 41-49 (K41F, A42V, V49Nle)] | >10 | – |
| CCC[C@H](NC(=O)[C@H](Cc1ccc(O)cc1)NC(=O)[C@H](Cc1ccccc1)NC(=O)[C@@H](NC(=O)[C@H](CCCCN)NC(=O)[C@H](CCC(=O)O)NC(=O)[C@H](CO)NC(=O)[C@@H](NC(=O)[C@@H](N)Cc1ccccc1)C(C)C)[C@@H](C)CC)C(=O)O [SSX2 41-49 (K41F, A42V, V49Nva)] | 0.1 | – |
| CC[C@H](C)[C@H](NC(=O)[C@H](CCCCN)NC(=O)[C@H](CCC(=O)O)NC(=O)[C@H](CO)NC(=O)[C@H](C)NC(=O)[C@@H](N)Cc1c[nH]c2ccccc12)C(=O)N[C@@H](Cc1ccccc1)C(=O)N[C@@H](Cc1ccc(O)cc1)C(=O)N[C@H](C(=O)O)C(C)C [SSX2 41-49 (K41W)] | >10 | – |
| CC[C@H](C)[C@H](NC(=O)[C@H](CCCCN)NC(=O)[C@H](CCC(=O)O)NC(=O)[C@H](CO)NC(=O)[C@@H](NC(=O)[C@@H](N)Cc1c[nH]c2ccccc12)[C@@H](C)CC)C(=O)N[C@@H](Cc1ccccc1)C(=O)N[C@@H](Cc1ccc(O)cc1)C(=O)N[C@H](C(=O)O)C(C)C [SSX2 41-49 (K41W, A42I)] | 0.1 | – |

| Compound | Cross-reactivity and fct avidity (native to analogs)* [1] | other results |
| --- | --- | --- |
| CC[C@H](C)[C@H](NC(=O)[C@H](CCCCN)NC(=O)[C@H](CCC(=O)O)NC(=O)[C@H](CO)NC(=O)[C@@H](NC(=O)[C@@H](N)Cc1ccc(O)cc1)[C@@H](C)CC)C(=O)N[C@@H](Cc1ccccc1)C(=O)N[C@@H](Cc1ccc(O)cc1)C(=O)N[C@H](C(=O)O)C(C)C [SSX2 41-49 (K41Y, A42I)] | 1 | – |
| CC[C@H](C)[C@H](NC(=O)[C@H](CCCCN)NC(=O)[C@H](CCC(=O)O)NC(=O)[C@H](CO)NC(=O)[C@H](C)NC(=O)[C@@H](N)CCCCN)C(=O)N[C@@H](Cc1ccccc1)C(=O)N[C@@H](Cc1ccc(O)cc1)C(=O)N[C@H](C(=O)O)C(C)C [SSX2 41-49, reference compound] | 1 | – |
| FVSEKIFY(Aib) [SSX2 41-49 (K41F, A42V, V49Aib)] | >10 | – |
| FVSEKLFTA | >10 | – |
| FVSEKMFYV [SSX2 41-49 (K41F, A42V, I46M)] | >10 | – |
| FVSEKVFYV (T cell peptide epitope analog) [SSX2 41-49 (K41F, A42V, I46V)] | 1 | – |
| FVSNKIFYV [SSX2 41-49 (K41F, A42V, E44N)] | >10 | – |
| K(D-Ala)SEKIFYV [SSX2 41-49 (A42(D-Ala))] | 10 | – |
| K(D-Val)SEKIFYV [SSX2 41-49 (A42(D-Val))] | 3 | – |
| KASEKIFYV [SSX2 41-49-NH2] | >10 | – |
| KASEKIFYVY [SSX-241-50, wild-type SSX-2 41-50 decamer peptide, reference compound] | – | cross-reactivity / IFN-gamma inducing activity relative to wild-type, in words [1]: significantly less active; also recorded: no immunological activity |
| KLSEKIFYV [SSX2 41-49-NH2 (A42L)] | 3 | – |
| KNal-1SEKIFYV [SSX2 41-49 (A42(Nal-1))] | >10 | – |
| KVSEKIFYI [SSX2 41-49 (A42V, V491)] | 0.3 | – |
| KVSEKIFYV [SSX2 41-49-NH2 (A42V)] | 10 | – |
| YLSEKIFYV [SSX2 41-49 (K41Y, A42L)] | – | Relative affinity (1/RA) (HLA-A*0201): 1.2 |
